Experimental data reported in patent publication US11666559B2, “Spiro-lactam compounds, process and uses thereof” (UNIVERSIDADE DE COIMBRA, priority 2017, dated 2023).
pIC50: −log10 of the molar value. Read-outs that look alike come from different tables or passages of the source.

Assays:
[1] = test system: Enterococcus faecalis ATCC 29212; assay: Anti-bacterial activity, agar diffusion method; type: cell-based; details: at the concentration of 1 mg/ml
Description: (§1) In an embodiment, anti-bacterial activity of the compounds now disclosed was determined according to CLSI guidelines. The following bacteria were used: reference strains E. coli ATCC 10536, Staphylococcus aureus ATCC 6538, Bacillus subtilis ATCC 6633 and Enterococcus faecalis ATCC 29212; clinical strains of E. coli and Pseudomonas aeruginosa isolated in our laboratory; and strains of Lactobacillus rhamnosus and Lactobacillus plantarum also isolated in our laboratory. The Minimum Inhibitory Concentration (MIC) was determined by the agar diffusion method, in plates of Mueller-Hinton agar or Rogosa agar (for Lactobacilli). Briefly, 10^8 cfu/ml bacterial suspensions were prepared in sterile water and spread in the culture media. Sterile disks containing different concentrations of P3 were placed on the inoculated surface. Plates were incubated at 37° C. for 24 h or 48 h. Lactobacilli were incubated at microaerophilic conditions. A negative control made of sterile water was used. Disks of amoxicillin and imipenem were used as positive controls.

Lactobacillus rhamnosus = assay: Anti-bacterial activity, agar diffusion method; type: cell-based; details: at the concentration of 1 mg/ml
Description: as §1

[2] = test system: Pseudomonas aeruginosa (Clinical strain); assay: Anti-bacterial activity, agar diffusion method; type: cell-based; details: at the concentration of 1 mg/ml
Description: as §1

[3] = test system: Escherichia coli ATCC 10536; assay: Anti-bacterial activity, agar diffusion method; type: cell-based; details: at the concentration of 1 mg/ml
Description: as §1

[4] = test system: Staphylococcus aureus ATCC 6538; assay: Anti-bacterial activity, agar diffusion method; type: cell-based; details: at the concentration of 1 mg/ml
Description: as §1

Lactobacillus plantarum = assay: Anti-bacterial activity, agar diffusion method; type: cell-based; details: at the concentration of 1 mg/ml
Description: as §1

[5] = test system: Escherichia coli (Clinical strain); assay: Anti-bacterial activity, agar diffusion method; type: cell-based; details: at the concentration of 1 mg/ml
Description: as §1

HIV-1 = details: for pIC50 / IC90: TZM-bl cells
Description: In an embodiment, TZM-bl cells (AIDS Research and Reference Reagent Program, National Institutes of Health, USA) were cultured in complete growth medium that consists of Dulbecco's minimal essential medium (DMEM) supplemented with 10% fetal bovine serum (FBS), 100 U/ml of penicillin-streptomycin (Gibco/Invitrogen, USA), 1 mM of sodium pyruvate (Gibco/Invitrogen, USA), 2 mM of L-glutamine (Gibco/Invitrogen, USA) and 1 mM of non-essential amino acids (Gibco/Invitrogen, USA).
In an embodiment, the primary isolates 93AOHDC249, 93AOHDC250, 01PTHDECJN and 03PTHCC9, used in this study were previously isolated, titrated and characterized for co-receptor usage. HIV reference strain SG3.1 was obtained by transfection of HEK293T cells with pSG3.1 (HIV-1) plasmid using Fugene 6 reagent (Roche, Switzerland) according to manufacturer's instructions.
In an embodiment, the 50% tissue culture infectious dose (TCID50) of the virus was determined in a single-round viral infectivity assay using a luciferase reporter gene assay in TZM-bl cells and calculated using the statistical method of Reed and Muench^27.
In an embodiment, the antiviral activity of the compounds was determined in a single-round assay with TZM-bl cells as previously described ^26. Cells were infected with 200 TCID50 of virus in the presence of serial fold dilutions of the BSS compounds in GM, supplemented with DEAE-dextran (19.7 μg/ml). After 48 h of infection, luciferase expression was quantified with the One-Glow luciferase assay substrate reagent (Promega, USA) according to manufacturer's instructions. Briefly, a volume of reagent equal to that of the culture medium in each well was added. For 96-well plates, typically 100 μl of reagent is added to the cells grown in 100 μl of medium. After an incubation of 3 minutes at room temperature to allow complete cell lysis luminescence was measured in Tecan Infinite M200. Background luminescence was measured by using control wells that contained only target cells and GM. Maraviroc (CCR5 antagonist), T1249 (fusion inhibitor) and AMD3100 (CXCR4 antagonist) were used as positive controls of the antiviral activity. At least two independent experiments were performed for each analysis and each assay was set up in triplicate wells.
In an embodiment, dose-response curves were estimated from the percentage of inhibition of infection (y-axis) against logo of concentration of each compound (x-axis) using the sigmoidal dose-response equation (variable slope) in GraphPad Prism version 5.00 for Windows (GraphPad Software, San Diego Calif. USA, www.graphpad.com). IC50 and IC90 values were determined from this curve. IC50 and IC90 values correspond to the concentration of compound that inhibits viral replication in 50% and 90%, respectively.

P. berghei liver stages = assay: In vitro activity against the liver stage of Plasmodium infection (luciferase assay in Huh7 cells); type: cell-based, Plasmodium berghei; details: for anti-Plasmodium activity (in words): P. berghei liver stages in Huh7 cells
Description: FIG. 6: Compound activity against P. berghei liver stages. Anti-Plasmodial activity (infection axis, bars) and toxicity to hepatoma cells (cell confluency axis, circles) are shown. Infection loads of Huh7 cells, a human hepatoma cell line, were determined by bioluminescence measurements of cell lysates 48 h after infection with luciferase-expressing P. berghei parasites. Luciferase assay in 96 well-plate; 10 000 Huh7 cells/well+10 000 PbA-LuciGFPcon spz/well.
In an embodiment, the in vitro activity against the liver stage of Plasmodium infection was also carried out: inhibition of liver stage Plasmodium infection by test compounds was determined by measuring the luminescence intensity in Huh-7 cells infected with a firefly luciferase-expressing P. berghei line, as previously described. Briefly, Huh-7 cells, a human hepatoma cell line, were cultured in 1640 RPMI medium supplemented with 10% v/v fetal bovine serum, 1% v/v nonessential amino acids, 1% v/v penicillin/streptomycin, 1% v/v glutamine, and 10 mM 4-(2-hydroxyethyl)-1-piperazineethanesulfonic acid (HEPES), pH 7, and maintained at 37° C. with 5% CO2. For infection assays, Huh-7 cells (1.0×10^4 per well) were seeded in 96-well plates the day before drug treatment and infection. The medium was replaced by medium containing the appropriate concentration of each compound approximately 1 h prior to infection with sporozoites freshly obtained through disruption of salivary glands of infected female Anopheles stephensi mosquitoes. Sporozoite addition was followed by centrifugation at 1700×g for 5 min. Parasite infection load was measured 48 h after infection by a bioluminescence assay (Biotium). The effect of the compounds on the viability of Huh-7 cells was assessed by the AlamarBlue assay (Invitrogen, U.K.) using the manufacturer's protocol.

[6] = 01PTHDECJN, CCR5 tropic HIV-1 primary isolate
[7] = SG3.1, CXCR4 tropic HIV-1 adapted isolate
[8] = 93AOHDC249, CCR5 tropic HIV-1 primary isolate
[9] = 93AOHDC250, HIV-1 primary isolate

SMILES | inhibitory activity [1] | inhibitory activity (Lactobacillus rhamnosus) | inhibitory activity [2] | inhibitory activity [3] | inhibitory activity [4] | inhibitory activity (Lactobacillus plantarum) | inhibitory activity [5] | anti-HIV activity against HIV-1 (in words) (HIV-1) | MPI (maximum percentage of inhibition) (HIV-1; [7]) [%] | TI (in vitro therapeutic index, CC50/IC50) (HIV-1; [7]) | pIC50 (HIV-1; [7]) | anti-Plasmodium activity (in words) (P. berghei liver stages) | other results
COC(=O)C1=C[C@@]2(N=N1)C(=O)N1[C@@H](C(=O)O)C(C)(C)S[C@@H]12 [BSS-593, (2,3′R,5R)-5′-(methoxycarbonyl)-3,3-dimethyl-7-oxo-4-thia-1-azaspiro[bicyclo[3.2.0]heptane-6,3′-pyrazole]-2-carboxylic acid] | no inhibitory activity | no inhibitory activity | no inhibitory activity | no inhibitory activity | no inhibitory activity | no inhibitory activity | no inhibitory activity | only active against HIV-1 | 84 | 13144.76 | 7.92 | presented activity | MPI (maximum percentage of inhibition) (HIV-1; [6]): 58%; TI (in vitro therapeutic index, CC50/IC50) (HIV-1; [6]): 4553.31; pIC50 (HIV-1; [6]): 7.46
CC1(C)S[C@H]2N(C(=O)[C@]23CC=C(C(=O)OCc2ccccc2)[C@@H]3C(=O)c2ccccc2)[C@H]1C(=O)OC(c1ccccc1)c1ccccc1 [BSS-730A] | no inhibitory activity | no inhibitory activity | no inhibitory activity | no inhibitory activity | no inhibitory activity | no inhibitory activity | no inhibitory activity | potent activity | 99 | 5584.30 | 7.85 | presented activity | MPI (maximum percentage of inhibition) (HIV-1; [8]): 99%; TI (in vitro therapeutic index, CC50/IC50) (HIV-1; [8]): 2946.32; pIC50 (HIV-1; [8]): 7.59; IC90 (HIV-1; [8]): 118 nM; MPI (maximum percentage of inhibition) (HIV-1; [9]): 94%; TI (in vitro therapeutic index, CC50/IC50) (HIV-1; [9]): 20247.69; pIC50 (HIV-1; [9]): 8.40; IC90 (HIV-1; [9]): 19.7 nM; inhibition (HIV-1; HIV-1, concentration of 15.21 μM): about 100%; IC90 (HIV-1; [7]): 25.2 nM; pIC50 (P. berghei liver stages; luciferase-expressing P. berghei in Huh7 cells, 48 h after infection): 6.26
